“Also recorded” adds a separate entry of the source.
How the values were obtained:
Assay type in all cases: in vivo, mouse
[1] = test system: retinoic acid receptor β (RARβ); assay: Immunolabeling of RARβ in retinal cross-sections after intravitreal injection; details: 5-6 days after intravitreal ATRA 100 nM versus vehicle
Description: The same procedure was carried out for detection of RARβ in mouse retinas following injection of vehicle or ATRA. Slides were incubated with a primary rabbit anti-RARβ antibody (ab53161, Abcam) and detected using an Alexa Fluor-488 conjugated goat anti-rabbit secondary antibody (Life Technologies). […] Retinas were collected 5-6 days following injection with vehicle, ATRA, or ATRA and Liarozole.
Imaging and Analysis. […] RARE double reporter virus in rats, RARb immunolabeling and TUNEL assay were imaged using a Laser Scanning Confocal Microscope (LSM 780 NLO, Zeiss), using Zen software and default configuration for RFP, GFP, AF488 and nuclear-ID detection.

[2] = test system: RGCs in rd1 retina; assay: YO-PRO-1 loading assay (dye permeability of RGCs) in rd1 retina after intravitreal injection
Description: (§1) Intravitreal Injections. Before injection, mice were anesthetized with isoflurane (2%) and their pupils were dilated with tropicamide (1%) and phenylephrine (2.5%). Proparacaine (0.5%) was used as a topical analgesic. Genteal was applied under a glass coverslip to keep the cornea lubricated. An incision was made through the sclera below the ora serrata with a 30G needle and ˜1 μl of solution was injected into the vitreous with a blunt-ended 33G Hamilton syringe. After injection, the antibiotic tobramycin (0.3%) was applied to the eye. Final drug concentrations after intravitreal injection were: all-trans retinoic acid (ATRA, 100 nM), liarozole (100 μM), diethylaminobenzaldehyde (DEAB, 20 μM), citral (50 μM), BMS-493 (500 nM), and retinaldehyde (1 μM). The above values correspond to the final concentration in the eye after injecting 1 μl of drug accounting for a 5-fold dilution. An injection of PBS including 1% DMSO was used as vehicle control.
Yo-PRO-1 Loading Assay. After dissection, retinas were cut into thirds and mounted on a windowed nitrocellulose filter paper. Retinas were treated with 200 nM Yo-PRO-1 (Life Technologies) in oxygenated ACSF for 15 minutes, followed by treatment and then treated with nuclear ID (Enzo Life Sciences) at a 1:500 dilution for 3 minutes. ACSF was perfused continuously at 3 ml/min for a period of 5 minutes to wash away excess dye. In experiments employing TNP-ATP (200 μm), the retinas was pretreated with the compound for ten minutes before beginning YO-PRO-1 treatment.
Image analysis. All image analysis was performed using ImageJ or Fiji software (55,56). Yo-PRO-1 loading assay, ROIs were manually selected using the nuclear-ID channel based upon morphological characteristics. This was performed after computationally flattening the retina by performing a maximum Z projection onto a single plane. Following this, a background subtraction was performed with a rolling radius of 50 pixels. Cells identified as vascular endothelial cells or pericytes were not included in the analysis. This was confirmed using transillumination. A threshold for YO-PRO-1 loading was established by measuring the level of autofluorescence of untreated retinas in each channel and finding a baseline value with +2SD being the threshold for a YO-PRO-1 positive cell. Nuclear-ID was used to count the total number of cells within a field of view. The percentage of cells above the threshold was then calculated for comparison. For analysis of RARE double reporter virus assay, ROIs were manually selected on the RFP channel first and then superimposed to the GFP channel. Single cell values for both RFP and GFP were filtered by using a RFP minimum threshold established in naive unlabeled retinas.
Injections. Intravitreal injections: Adult mice and rats were intravitreally injected with drugs or viruses. Before injection, animals were anesthetized with isoflurane (2%) and their pupils were dilated with tropicamide (1%) and phenylephrine (2.5%). Proparacaine (0.5%) was used as a topical analgesic. Genteal was applied under a glass coverslip to keep the cornea lubricated. An incision was made through the sclera below the ora serrata with a 30G needle. Solutions were injected into the vitreous with a blunt-ended 33G Hamilton syringe. After injection, the antibiotic tobramycin (0.3%) was applied to the eye. Final drug concentrations (after 5-fold dilution in the vitreous) were: 100 nM all-trans retinoic acid (ATRA), 100 μM liarozole (24), 20 μM diethylaminobenzaldehyde (DEAB) (28,93), 50 μM citral, 500 nM BMS 493 (85), 1 μM retinaldehyde, and vehicle comprising of 1× phosphate buffered saline (PBS) containing 1% dimethyl sulfoxide (DMSO). Intravitreal injections were performed using AAV2 serotype only. WT and rd1 mice were injected with the RAR-reporter virus or the RARDN virus, at age 1-1.5 month-old. WT and s334ter rats were injected with the RAR-reporter virus at age 3-4 month-old. Final volume of injections was 1-1.5 μL for mice and 5 μL for rats. […]

[3] = test system: RGCs in rd10 retina; assay: MEA recording of light-flash responses in partially degenerated rd10 retina
Description: as §1
Multi Electrode Array Recordings. For extracellular recordings, a flat-mounted retina was placed ganglion cell layer down onto a 60-electrode Multi-Electrode Array (MEA 1060-2-BC, Multi-Channel Systems). After mounting the retina, photoswitches were applied for 30 min, followed by a 15 min wash. BENAQ was applied at a concentration of 100 μM and QAQ at 300 μM. A solution containing a mixture of neurotransmitter receptor blockers isolated RGCs from synaptic inputs: (in μM) 10 AP4, 40 DNQX, 30 AP5, 10 SR-95531, 50 TPMPA, 10 strychnine, and 50 tubocurarine. Extracellular spikes were high-pass filtered at 200 Hz and digitized at 20 kHz and were counted when exceeding 4 SD from the mean background voltage signal. Typically, each electrode recorded spikes from one to three individual RGCs. Principal component analysis of the spike waveforms was used for sorting spikes generated by individual cells (Offline Sorter, Plexon). Stimulation light was generated from a mercury arc lamp. Unfiltered broad spectrum light was used for BENAQ-treated retinas. Narrow band optical filters (Chroma) were used to deliver alternating intervals of 380 nm and 500 nm for stimulation of QAQ-treated as described previously (5,12). The Photoswitch Index (5) (PI) was established for individual retinas in light/darkness for treatment with BENAQ or in 380 nm/500 nm light for treatment with QAQ (11,12).
Data Analysis and Statistics. Unless otherwise stated, all statistical significance (p-value) calculations were performed using the two-tailed unpaired Student's t test. Results with p<0.05 were considered significant. P-values are: *<0.05, **<0.01, ***<0.001. Pairwise comparisons for non-parametric data employed the Wilcoxon Rank Sum Test or the Mann-Whitney U-test. In the case where ANOVA was employed, bootstrapping was used to account for unequal group sizes and a Tukey HSD test was employed as a post-hoc test to define which comparisons and interactions produced statistically significant changes. A modified Thompson-Tau method was employed for the detection of outliers. Non-normal data distributions were analyzed using the Kruskal-Wallis ANOVA with a Dunn's post hoc test. Sigmoidal curves were fit using OriginPro™ and the output curves for vehicle and BMS-493 are y=START+(END−START)*x^n/(k^n+x^n).
Injections. Intravitreal injections: Adult mice and rats were intravitreally injected with drugs or viruses. Before injection, animals were anesthetized with isoflurane (2%) and their pupils were dilated with tropicamide (1%) and phenylephrine (2.5%). Proparacaine (0.5%) was used as a topical analgesic. Genteal was applied under a glass coverslip to keep the cornea lubricated. An incision was made through the sclera below the ora serrata with a 30G needle. Solutions were injected into the vitreous with a blunt-ended 33G Hamilton syringe. After injection, the antibiotic tobramycin (0.3%) was applied to the eye. […]

Compound	RARβ level in RGCs / ganglion cell layer [1]	Yo-Pro-1 labeling of rd1-RGCs, result in words ([2]; rd1, intravitreal injection, compared to vehicle-injected)	percentage of YO-PRO-1 positive cells (fraction of RGC nuclei labeled) ([2]; rd1 mice, intravitreal injection, measured 3-7 days after, BMS-493 500 nM, DEAB 20 uM, citral 50 uM, mean±SEM)	I50, midpoint of the intensity vs. response curve ([3]; 6-week-old rd10, 3-7 days after intravitreal injection, vehicle eye 1.73 μW)	Max, peak response (ratio of firing rate in the light:dark) ([3]; 6-week-old rd10, 3-7 days after intravitreal injection, vehicle eye 3.68)	RGC response to a flash of dim light, in words ([3]; rd10, 50 ms flash, 0.2 μW, vehicle-treated retinas showed no response)	background (spontaneous) firing in darkness, in words ([3]; rd10, BMS-493-injected eye)	response threshold (light intensity) ([3]; rd10, BMS-493-injected eye, vehicle-injected 0.85 μW)	light response compared between drug-injected and vehicle-injected eye of each animal, in words ([3]; rd10, n=5, paired)	shift of the intensity-response curve, in words ([3]; rd10, range of light intensities, versus vehicle)
CC1=C(/C=C/C(C)=C/C=C/C(C)=C/C(=O)O)C(C)(C)CCC1 [ATRA, all-trans retinoic acid]	significant increase in RARβ; also recorded: upregulation of the β-subunit of RAR	–	–	–	–	–	–	–	–	–
CC1(C)CC=C(C#Cc2ccccc2)c2cc(/C=C/c3ccc(C(=O)O)cc3)ccc21 [BMS-493]	–	reduced Yo-Pro-1 labeling in rd1 to WT levels	6.13±1.43%	0.35 μW	4.77	shows a response in BMS-493 injected animals but not vehicle injected mice; also recorded: transient increase in RGC firing in response to a brief flash (50 ms) of dim light	reduced spontaneous activity; also recorded: decrease in the background firing rate in darkness	0.2 μW	significantly increased light response in every subject; also recorded: observed in all 5 animals tested; also recorded: enhanced the light response in all mice tested	leftward and upward shift of fitted sigmoidal curves; also recorded: increase in sensitivity and peak response to light
